Results on two compounds are retold here after ChEMBL document CHEMBL5696442, “Discovery of type II inhibitors of TGFβ-activated kinase 1 (TAK1) and mitogen-activated protein kinase kinase kinase kinase 2 (MAP4K2)” (J Med Chem, 2015).

In test [1] the target is Phosphatidylinositol 4,5-bisphosphate 3-kinase catalytic subunit beta isoform (Homo sapiens) (UniProt P42338). Kind of test: Inhibition of PIK3CB (unknown origin) at 1 uM by Ambit Kinomescan binding assay relative to control; values are per cent of control.
Chain of Phosphatidylinositol 4,5-bisphosphate 3-kinase catalytic subunit beta isoform (Homo sapiens) (P42338 whole entry, looked up, canonical isoform): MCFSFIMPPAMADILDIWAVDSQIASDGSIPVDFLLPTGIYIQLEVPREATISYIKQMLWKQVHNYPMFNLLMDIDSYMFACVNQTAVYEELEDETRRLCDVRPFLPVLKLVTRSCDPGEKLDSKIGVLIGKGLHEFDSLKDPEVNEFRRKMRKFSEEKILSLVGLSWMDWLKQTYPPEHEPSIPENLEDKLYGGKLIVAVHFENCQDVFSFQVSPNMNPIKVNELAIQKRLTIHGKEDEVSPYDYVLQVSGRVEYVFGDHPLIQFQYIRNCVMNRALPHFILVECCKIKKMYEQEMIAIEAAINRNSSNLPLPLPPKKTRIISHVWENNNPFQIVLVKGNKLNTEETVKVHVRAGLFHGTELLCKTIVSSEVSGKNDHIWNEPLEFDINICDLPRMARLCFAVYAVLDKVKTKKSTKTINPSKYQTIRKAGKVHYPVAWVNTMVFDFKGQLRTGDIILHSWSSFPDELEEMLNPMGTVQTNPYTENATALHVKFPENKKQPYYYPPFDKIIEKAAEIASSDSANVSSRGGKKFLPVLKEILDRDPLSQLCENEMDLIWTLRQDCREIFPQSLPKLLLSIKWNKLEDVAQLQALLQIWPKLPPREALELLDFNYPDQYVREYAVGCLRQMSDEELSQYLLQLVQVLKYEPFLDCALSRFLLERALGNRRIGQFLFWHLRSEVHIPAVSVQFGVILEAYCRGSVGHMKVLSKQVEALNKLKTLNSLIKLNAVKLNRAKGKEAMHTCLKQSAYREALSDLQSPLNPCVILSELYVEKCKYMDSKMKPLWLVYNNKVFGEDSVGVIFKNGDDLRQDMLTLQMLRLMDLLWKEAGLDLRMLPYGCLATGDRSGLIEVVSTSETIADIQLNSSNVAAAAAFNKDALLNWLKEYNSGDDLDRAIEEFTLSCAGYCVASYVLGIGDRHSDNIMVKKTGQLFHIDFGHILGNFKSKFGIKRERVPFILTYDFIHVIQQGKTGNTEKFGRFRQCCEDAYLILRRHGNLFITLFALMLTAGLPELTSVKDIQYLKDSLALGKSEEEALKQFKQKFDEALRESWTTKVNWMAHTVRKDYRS
The target in test [2] is T1, Inhibitor of nuclear factor kappa-B kinase subunit alpha (Homo sapiens) (UniProt O15111).
T1 sequence (whole entry): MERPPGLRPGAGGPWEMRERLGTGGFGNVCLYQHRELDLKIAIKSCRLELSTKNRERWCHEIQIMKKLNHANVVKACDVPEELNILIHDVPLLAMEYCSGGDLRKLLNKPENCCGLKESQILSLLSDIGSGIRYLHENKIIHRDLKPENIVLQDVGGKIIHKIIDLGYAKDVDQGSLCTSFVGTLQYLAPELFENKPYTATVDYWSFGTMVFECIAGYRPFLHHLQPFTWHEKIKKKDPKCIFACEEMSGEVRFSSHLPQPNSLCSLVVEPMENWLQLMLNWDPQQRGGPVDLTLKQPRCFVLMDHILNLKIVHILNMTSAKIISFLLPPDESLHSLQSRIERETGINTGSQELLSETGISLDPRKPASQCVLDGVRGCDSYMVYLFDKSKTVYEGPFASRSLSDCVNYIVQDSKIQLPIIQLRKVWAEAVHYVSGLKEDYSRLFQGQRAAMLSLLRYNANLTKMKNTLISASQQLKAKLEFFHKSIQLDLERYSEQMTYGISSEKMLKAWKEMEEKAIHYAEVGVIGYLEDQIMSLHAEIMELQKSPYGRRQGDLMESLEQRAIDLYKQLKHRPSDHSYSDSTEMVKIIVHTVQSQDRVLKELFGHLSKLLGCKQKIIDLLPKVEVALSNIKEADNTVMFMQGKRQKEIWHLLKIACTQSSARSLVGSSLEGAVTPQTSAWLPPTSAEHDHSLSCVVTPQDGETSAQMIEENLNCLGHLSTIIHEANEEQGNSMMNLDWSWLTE
The test is described as follows: Inhibition of IKK-alpha (unknown origin) at 1 uM by Ambit Kinomescan binding assay relative to control; values are per cent of control.

Test [3] deals with T2, Mitogen-activated protein kinase kinase kinase 15 (Homo sapiens) (UniProt Q6ZN16).
T2 sequence (whole entry): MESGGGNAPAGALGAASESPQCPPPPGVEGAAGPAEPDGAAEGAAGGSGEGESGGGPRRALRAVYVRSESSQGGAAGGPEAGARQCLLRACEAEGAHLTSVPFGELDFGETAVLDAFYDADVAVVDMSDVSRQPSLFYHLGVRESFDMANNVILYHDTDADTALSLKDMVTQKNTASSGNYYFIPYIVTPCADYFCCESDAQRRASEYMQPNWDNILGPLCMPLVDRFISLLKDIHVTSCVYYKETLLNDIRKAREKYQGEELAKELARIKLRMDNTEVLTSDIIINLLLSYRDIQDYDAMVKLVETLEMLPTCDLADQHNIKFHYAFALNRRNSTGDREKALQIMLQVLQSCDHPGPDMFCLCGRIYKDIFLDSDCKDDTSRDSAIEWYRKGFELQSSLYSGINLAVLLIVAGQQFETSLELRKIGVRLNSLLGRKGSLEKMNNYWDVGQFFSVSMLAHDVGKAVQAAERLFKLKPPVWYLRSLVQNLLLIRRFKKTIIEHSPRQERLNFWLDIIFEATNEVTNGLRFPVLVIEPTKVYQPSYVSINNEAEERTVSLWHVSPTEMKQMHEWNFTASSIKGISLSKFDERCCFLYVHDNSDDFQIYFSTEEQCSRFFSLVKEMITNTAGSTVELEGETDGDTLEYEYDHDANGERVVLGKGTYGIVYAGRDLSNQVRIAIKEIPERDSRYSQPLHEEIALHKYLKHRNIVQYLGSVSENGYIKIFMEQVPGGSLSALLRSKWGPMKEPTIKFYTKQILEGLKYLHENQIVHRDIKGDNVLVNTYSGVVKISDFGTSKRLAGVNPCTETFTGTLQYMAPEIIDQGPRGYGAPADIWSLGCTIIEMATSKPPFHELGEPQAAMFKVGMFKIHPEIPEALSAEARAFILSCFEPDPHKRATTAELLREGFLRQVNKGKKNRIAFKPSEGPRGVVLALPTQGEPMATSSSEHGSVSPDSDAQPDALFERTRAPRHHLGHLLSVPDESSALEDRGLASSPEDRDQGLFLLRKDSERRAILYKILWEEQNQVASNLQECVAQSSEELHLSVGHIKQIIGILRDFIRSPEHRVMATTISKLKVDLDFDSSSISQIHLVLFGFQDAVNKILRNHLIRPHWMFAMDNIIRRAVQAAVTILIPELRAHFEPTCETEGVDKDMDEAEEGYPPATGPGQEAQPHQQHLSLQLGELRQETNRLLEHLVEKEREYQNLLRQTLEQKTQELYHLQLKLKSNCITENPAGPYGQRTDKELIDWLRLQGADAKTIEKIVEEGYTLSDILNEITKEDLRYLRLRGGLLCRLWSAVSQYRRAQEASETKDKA
The test is described as follows: Inhibition of MAP3K15 Lys1 labeling site harbouring IAIKEIPER in human A-375 cells at 0.05 uM by KiNativ Profiling analysis relative to control. The test is classed as cell-based.

Take `CCN1CCN(Cc2ccc(NC(=O)c3ccc(C)c(/C=C/c4cnc5[nH]ccc5c4OC)c3)cc2C(F)(F)F)CC1`: the residual activity in test [1] was 100%; in test [2] it was 2%. In test [3], `CCN1CCN(Cc2ccc(NC(=O)c3ccc(C)c(Oc4ccnc5[nH]ccc45)c3)cc2C(F)(F)F)CC1` displayed an inhibition of 10.8%.

As a reminder, the residual activity is the signal under treatment as a percentage of the control signal. In general, inhibition refers to how much of the control response was suppressed. The low end stands for a response near the control, the high end for a response far below the control.
